Holding throughout (experiment): NCI tumour cell line growth inhibition, 48 h
For assay [1], the system named is HS 578T breast.
The test system of assay [2] is T-47D breast.
Assay [3] deals with SF-295 CNS.
For assay [4], the system named is MDA-N.
Assay [5] relates to SF-539 CNS.
The subject of assay [6] is OVCAR-3 ovarian.
The test system of assay [7] is NCI-H23 lung.
In assay [8] the test system is NCI/ADR-RES ovarian.
Assay [9] relates to BT-549 breast.
Assay [10] concerns K-562 leukemia.

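How tested: cells in 96-well plates exposed to compound for 48 hours at five concentrations. The concentration for full growth arrest is given as TGI.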

As to `COC(=O)C1=C(C(=O)OC)SC(=C2SCSC3=C2SC(C(=O)OC)=C(C(=O)OC)C32SC3=C(CCCC3)S2)S1`, the TGI in assay [1], in assay [2], in assay [3], in assay [4], in assay [5] and in assay [6] was over 100 µM in each case. Further, the TGI in assay [7], in assay [8], in assay [9] and in assay [10] was over 100 µM in each case.

Regarding `NC1(c2cc3ccccc3s2)CCCC1`, the TGI was over 100 µM in assay [1]; over 100 µM in [2]; over 100 µM in assay [3]; over 100 µM in assay [4]; 45.3 µM in [5]; over 100 µM in [6]. Moreover, the TGI in assay [7] was over 100 µM; in [8], over 100 µM; in assay [9] it was over 100 µM; in [10], 63 µM.

`CCOP(=O)(OCC)C(F)(F)c1ccc(CC(NC(=O)OC(C)(C)C)C(=O)O)cc1` (stereo not given): the TGI in assay [1], in [2], in assay [3], in assay [4], in [5] and in [6] was over 10 µM throughout. For the same molecule, the TGI in assay [7], in [8], in assay [9] and in [10] was over 10 µM in each case.

As to `CCN(CC)C(=S)N/N=C/c1cc([N+](=O)[O-])ccc1O`, the TGI in assay [1] was 95.7 µM; in assay [2], 39.4 µM; in [3], over 100 µM; in [4], over 100 µM; in [5] it was 28.3 µM; in [6], 13.3 µM. Further, the TGI in [7] turned out to be 28.9 µM; in [8], 13.9 µM; in [9] it was 33.2 µM; in assay [10], 18.1 µM.

In the case of `COc1ccc(C(=C2C=CC=C2)c2ccc(OC)cc2)cc1`, the TGI is 94.4 µM in assay [1]; 57.7 µM in assay [2]; 54.4 µM in [3]; over 100 µM in assay [4]; 29.6 µM in assay [5]; over 100 µM in assay [6]. For the same molecule, the TGI in assay [7], in [8], in assay [9] and in assay [10] was over 100 µM in each case.

In the case of `Cc1ccccc1C(=N)c1ccccc1Cc1cccc2ccccc12`, the TGI in assay [1] was determined as 26.3 µM; in assay [2] it was 38.4 µM; in [3], 62.5 µM; in [4], 65.7 µM; in [5] it was 35.4 µM; in [6], 26.6 µM. For the same molecule, the TGI in [7] was over 100 µM; in [8] it was 88.6 µM; in [9], 92 µM; in assay [10], over 100 µM.

In the case of `C(=C(c1ccc(OC2CCCCO2)cc1)c1ccc(OC2CCCCO2)cc1)c1ccccc1` (stereo not given), the TGI stood at 4.44 µM in [1]; 2.14 µM in [2]; 2.51 µM in assay [3]; 1.75 µM in assay [4]; 3.24 µM in [5]; 1.75 µM in assay [6]. Besides, the TGI in assay [7] worked out at 2.24 µM; in assay [8], 2.92 µM; in [9] it was 1.5 µM; in [10] it was 2.01 µM.

Take `[N-]=[N+]=NC(c1ccccc1)(c1ccccc1)c1ccccc1`: the TGI in [1] amounted to 51.8 µM; in assay [2], 38.4 µM; in [3] it was 27.1 µM; in [4], 31.4 µM; in assay [5] it was 31 µM; in assay [6], 42.5 µM. Also, the TGI came to 42.4 µM in assay [7], 34.1 µM in assay [8], 37.7 µM in assay [9] and 42.5 µM in assay [10].

As to `Oc1ccccc1CNCc1nc2ccccc2[nH]1`, the TGI in assay [1], in [2], in assay [3], in [4], in assay [5] and in assay [6] was over 100 µM throughout. Further, the TGI was over 100 µM in assay [7], 61.5 µM in assay [8], over 100 µM in [9] and over 100 µM in assay [10].

For the molecule `O=C(/C=C/c1ccccc1)C[C@@H](O)C[C@@H]1CC=CC(=O)O1`, the TGI was over 87.3 µM in [1]; 42.2 µM in assay [2]; 28 µM in [3]; 14.3 µM in [4]; 14.9 µM in assay [5]; 13.3 µM in [6]. In addition, the TGI was 28.6 µM in [7], over 85.5 µM in assay [8], 27.7 µM in [9] and 7 µM in assay [10].

Take `CC(C)c1cc2c(cc1S(=O)(=O)O)[C@@]1(C)CCC[C@@](C)(C(=O)O)C1CC2` (stereo not given in full): the TGI in assay [1], in [2], in assay [3], in assay [4], in [5] and in assay [6] was over 100 µM in each case. Further, the TGI in assay [7], in assay [8], in assay [9] and in assay [10] was over 100 µM in each case.

For the molecule `Cc1ccc(-c2csc(=Nc3ccccc3)n2NC(=O)c2ccncc2)cc1`, the TGI in [1] was over 100 µM; in [2] it was 58.7 µM; in [3], 74.9 µM; in assay [4], over 100 µM; in [5] it was over 100 µM; in assay [6], over 100 µM. For the same molecule, the TGI is over 76.1 µM in assay [7], over 90.5 µM in assay [8], over 91.8 µM in [9] and 36.1 µM in assay [10].

Consider `Cc1oc2c(cc(O)c3cc(O)ccc32)c2cccc1-2`, for which the TGI in assay [1], in [2], in assay [3], in assay [4], in [5] and in assay [6] was over 100 µM each time. The TGI was over 100 µM in [7], over 100 µM in assay [8], 44 µM in [9] and over 100 µM in [10].

For the origin of these results see PubChem BioAssay (NCI).
